Assay results taken from article PMC6766655, “AhR–ROR-γt complex is a therapeutic target for MAP4K3/GLK^highIL-17A^high subpopulation of systemic lupus erythematosus” (The FASEB Journal, 2019).

How the values were obtained:
[1] = biological target: T1, HGK (MAP4K4) (Homo sapiens, UniProt O95819); test: In vitro kinase assay, myelin basic protein as substrate (ADP-Glo); format: biochemical; conditions: recombinant kinase domain
T1 construct: Recombinant proteins of kinase domains of various MAP4Ks were used; purchased Promega
T1 sequence (O95819 25-289 limits assumed): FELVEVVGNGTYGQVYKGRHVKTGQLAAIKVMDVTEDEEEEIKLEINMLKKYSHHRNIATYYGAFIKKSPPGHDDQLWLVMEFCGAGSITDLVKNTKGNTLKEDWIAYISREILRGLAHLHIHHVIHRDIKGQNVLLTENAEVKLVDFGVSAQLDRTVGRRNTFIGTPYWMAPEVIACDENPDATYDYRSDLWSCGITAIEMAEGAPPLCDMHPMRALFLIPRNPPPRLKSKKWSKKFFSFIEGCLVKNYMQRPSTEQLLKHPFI

[2] = tested on: GLK-induced NF-κB luciferase activity of CHO-GLK-Luc cells; test: Cell-based NF-κB luciferase reporter assay in GLK-transfected CHO-K1 cells; set-up: species or system Chinese hamster; conditions: stable GLK-transfected CHO-K1 cells; Fig. 3A
Experimental: Cell-based high‐throughput screening was conducted against a representative library of 100,000 molecules at ∼10 μM. The Chinese hamster ovary CHO-K1 (ATCC, CCL-61) cells expressing GLK and NF-κB luciferase (Luc) reporter were used. The reaction volume was 5 μl (500 cells) per well in 1536‐well plates. There was no positive control. This high‐throughput screening campaign was successful, with a determined Z' factor of 0.57 ∼ 0.60. […] At the end, 1392 compounds were identified for high inhibition (>80%) of the GLK-induced NF-κB luciferase activity of CHO‐GLK‐Luc cells. These 1392 compounds were further screened for the inhibition of GLK kinase activity by in vitro kinase assays using the kinase-dead PKC-θ protein as the substrate. From the screening, 2 potential small-molecule GLK inhibitors [half maximal inhibitory concentration (IC50) < 10 μM] were identified.
Figure 3 Verteporfin (C1) blocks the AhR–ROR-γt complex in human autoimmune T cells. A) Luciferase activity of NF-κB–driven reporter assays in stable GLK-transfected CHO-K1 cells that were treated with or without C1 under the indicated concentration. The fold changes are presented relative to the value of vector control. […] D) Quantification of the PLA signals shown in panel C. *P < 0.05, ***P < 0.001 (2-tailed Student’s t test).

[3] = biological target: T2, GLK (MAP4K3) (Homo sapiens, UniProt Q8IVH8); test: In vitro kinase assay, myelin basic protein as substrate (ADP-Glo); format: biochemical; conditions: recombinant kinase domain
T2 construct: Recombinant proteins of kinase domains of various MAP4Ks were used; purchased Promega
T2 sequence (Q8IVH8 16-273 limits assumed): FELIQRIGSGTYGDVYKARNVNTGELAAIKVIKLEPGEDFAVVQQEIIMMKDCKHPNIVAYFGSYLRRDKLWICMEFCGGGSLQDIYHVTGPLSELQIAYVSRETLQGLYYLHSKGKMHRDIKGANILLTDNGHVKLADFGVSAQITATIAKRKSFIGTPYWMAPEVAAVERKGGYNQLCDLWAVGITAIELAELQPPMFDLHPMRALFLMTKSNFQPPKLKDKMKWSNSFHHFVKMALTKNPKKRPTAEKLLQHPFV
Experimental: GLK kinase activity was determined by measuring the rate of ADP production in the in vitro kinase reaction using ADP-Glo Kinase Assay Kit (Promega). For the kinase reaction, recombinant proteins of the GLK kinase domain (1 μg) were incubated with recombinant proteins of kinase-dead PKC-θ (K409W; 0.15 μg) plus ATP (0.1 mM) or myelin basic protein (MilliporeSigma) plus ATP (0.1 mM) in kinase buffer [40 mM Tris-HCl (pH 7.5), 20 mM MgCl2, 0.1 mg/ml bovine serum albumin, 10 mM DTT, and 0.1 mM Na3VO4] for 30 min at room temperature.

[4] = tested on: Lck-GLK Tg mice; test: Serum cytokines and autoantibodies (ELISA) in Lck-GLK Tg mice; format: in vivo; conditions: 0.4 μg/g body weight i.v. every 3 d
Text: Lck-GLK Tg mice with C57BL/6J backgrounds and GLK-deficient mice with C57BL/6J backgrounds were generated as previously described ([18], [21]). Their respective wild-type littermates with C57BL/6J backgrounds were used as controls. Mice used in this report were either 20-wk-old sex-matched littermates or 8–10-wk-old sex-matched [all female for EAE, all male for collagen-induced arthritis (CIA)] C57BL/6J wild-type mice. All mice used in this study were maintained in temperature-controlled and pathogen-free cages. All animal experiments were performed in the Association for Assessment and Accreditation of Laboratory Animal Care–animal housing facilities at National Health Research Institutes. All mice were used according to the protocols and guidelines approved by the Institutional Animal Care and Use Committee of National Health Research Institutes.
Lck-GLK Tg mice were administered verteporfin (0.4 μg/g body weight) by intravenous injection every 3 d for a period of 30 d (Fig. 4A). […] Moreover, overproduction of autoantibodies (anti-nuclear antibody, anti-dsDNA antibody, and rheumatoid factor) in Lck-GLK Tg mice was also abolished by the verteporfin treatment for 30 d (Fig. 4C). […] To further verify that verteporfin is also effective in IL-17A–mediated animal models, we treated wild-type mice with verteporfin during induction of EAE and CIA.
Figure 4 Verteporfin (C1) suppresses IL-17 production and autoimmune responses in mice. A–C) Effect of C1 administration (0.4 μg/g body weight every 3 d for a period of 30 d) on serum IL-17A and autoantibodies in 20-wk-old Lck-GLK Tg mice. B) ELISA of serum IL-17A, IL-6, TNF-α, IFN-γ, and IL-17F in Lck-GLK Tg mice treated with C1 or PBS for 16 d. C) ELISA of serum autoantibodies in Lck-GLK Tg mice treated with C1 or PBS for 30 d. Means ± SEM are shown; n = 4/group. D) EAE induction in wild-type C57BL/6J mice treated with PBS or C1 (0.4 μg/g body weight every 3 d). Clinical scores are presented on a scale of 1–5. PBS group, n = 10; C1 group, n = 7. E) ELISA of IL-17A in the sera from MOG-immunized mice at day 16. […]

verteporfin
IC50 [1]: 4.92 nM | GLK signaling in cell lines (NF-κB-driven luciferase activity) [2]: efficiently inhibited | IC50 [3]: 1.15 nM | serum levels of IL-6, TNF-α, IFN-γ, and IL-17F ([4]; 16 d): not significantly changed | serum IL-17A ([4]; 16 d, vs PBS): significantly decreased | overproduction of autoantibodies (anti-nuclear antibody, anti-dsDNA antibody, rheumatoid factor) ([4]; 30 d): abolished
